Experimental data: US20250066363A1, “Bicyclic DGK Inhibitors” (Incyte Corporation, priority 2023, published 2025)

Experiments:
[1] = target: DGKζ (Homo sapiens (Human), UniProt Q13574); experiment: In vitro DGKζ inhibition assay (ADP-Glo); format: biochemical; conditions: second column of Table A, head printed DGKα, presumably DGKζ; His-tagged human recombinant DGKζ 0.4 nM, 30 μM ATP, 20 μM DLG
[2] = target: DGKα (Homo sapiens (Human), UniProt P23743); experiment: In vitro DGKα inhibition assay (ADP-Glo); format: biochemical; conditions: first column of Table A; His-tagged human recombinant DGKα 0.1 nM, 50 μM ATP, 20 μM DLG
Chain of DGKα (P23743 whole entry): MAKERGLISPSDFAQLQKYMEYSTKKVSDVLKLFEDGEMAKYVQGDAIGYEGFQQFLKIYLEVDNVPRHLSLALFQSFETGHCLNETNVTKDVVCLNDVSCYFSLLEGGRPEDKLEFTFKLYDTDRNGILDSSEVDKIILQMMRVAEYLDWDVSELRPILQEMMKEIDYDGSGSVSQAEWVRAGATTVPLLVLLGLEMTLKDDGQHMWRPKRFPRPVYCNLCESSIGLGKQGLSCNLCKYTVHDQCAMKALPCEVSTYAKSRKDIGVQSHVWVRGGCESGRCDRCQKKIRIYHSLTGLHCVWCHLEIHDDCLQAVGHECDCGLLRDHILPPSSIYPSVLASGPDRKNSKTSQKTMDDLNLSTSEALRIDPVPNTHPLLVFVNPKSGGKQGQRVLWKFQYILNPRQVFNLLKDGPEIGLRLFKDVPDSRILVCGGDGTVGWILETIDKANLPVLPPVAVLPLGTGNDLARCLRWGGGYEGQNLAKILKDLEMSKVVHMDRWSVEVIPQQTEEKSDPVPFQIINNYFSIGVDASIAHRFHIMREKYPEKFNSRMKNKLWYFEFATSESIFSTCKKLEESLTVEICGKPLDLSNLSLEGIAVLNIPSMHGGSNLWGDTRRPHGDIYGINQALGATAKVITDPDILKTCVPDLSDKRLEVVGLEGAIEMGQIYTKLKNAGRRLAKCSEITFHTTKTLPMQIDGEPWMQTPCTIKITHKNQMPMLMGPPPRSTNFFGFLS

Chain of DGKζ (Q13574 whole entry): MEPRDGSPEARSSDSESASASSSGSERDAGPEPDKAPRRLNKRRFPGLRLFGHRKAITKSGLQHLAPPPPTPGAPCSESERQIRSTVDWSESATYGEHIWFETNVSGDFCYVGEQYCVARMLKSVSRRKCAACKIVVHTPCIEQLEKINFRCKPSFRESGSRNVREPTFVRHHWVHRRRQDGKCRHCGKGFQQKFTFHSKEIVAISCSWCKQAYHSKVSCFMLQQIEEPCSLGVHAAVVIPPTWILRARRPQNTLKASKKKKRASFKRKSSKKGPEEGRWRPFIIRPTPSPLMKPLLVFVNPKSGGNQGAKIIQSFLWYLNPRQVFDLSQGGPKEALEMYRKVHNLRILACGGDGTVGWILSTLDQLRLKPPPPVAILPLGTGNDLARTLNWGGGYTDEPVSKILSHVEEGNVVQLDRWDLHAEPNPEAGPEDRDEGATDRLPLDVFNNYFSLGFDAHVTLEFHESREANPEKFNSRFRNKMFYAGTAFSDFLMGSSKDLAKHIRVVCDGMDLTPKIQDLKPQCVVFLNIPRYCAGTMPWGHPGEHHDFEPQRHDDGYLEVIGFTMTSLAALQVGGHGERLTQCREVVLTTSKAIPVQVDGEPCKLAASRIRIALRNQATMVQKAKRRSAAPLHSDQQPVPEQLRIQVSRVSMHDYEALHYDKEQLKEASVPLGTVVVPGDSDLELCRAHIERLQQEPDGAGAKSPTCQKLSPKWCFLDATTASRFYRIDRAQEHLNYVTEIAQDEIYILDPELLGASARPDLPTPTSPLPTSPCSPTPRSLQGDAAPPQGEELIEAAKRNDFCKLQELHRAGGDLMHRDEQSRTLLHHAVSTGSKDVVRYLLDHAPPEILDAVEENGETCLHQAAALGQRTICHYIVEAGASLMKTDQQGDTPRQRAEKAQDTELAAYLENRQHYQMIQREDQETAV

| Structure (SMILES) | IC50 [1] [µM] | IC50 [2] [µM] |
| --- | --- | --- |
| C[C@@H]1CN(c2nc(=O)n(C)c3c2ncn3CC2(O)CCC2)[C@@H](C)CN1C(c1ccc(Cl)cc1)C1CC(F)(F)C1 (stereo partly drawn) [Example 67, 6-((2S,5R)-4-((4-Chlorophenyl)(3,3-difluorocyclobutyl)methyl)-2,5-dimethylpiperazin-1-yl)-9-((1-hydroxycyclobutyl)methyl)-3-methyl-3,9-dihydro-2H-purin-2-one] | ≤ 0.01 | ≤ 0.01 |
| CC[C@@H]1CN(c2nc(=O)n(C)c3c2nc(C)n3C[C@H]2OCC[C@@H]2O)[C@@H](C)CN1[C@@H](CC)c1ccc(C(F)(F)F)cc1 [Example 69, 6-((2S,5R)-5-Ethyl-2-methyl-4-((S)-1-(4-(trifluoromethyl)phenyl)propyl)piperazin-1-yl)-9-(((2R,3S)-3-hydroxytetrahydrofuran-2-yl)methyl)-3,8-dimethyl-3,9-dihydro-2H-purin-2-one] | ≤ 0.01 | ≤ 0.01 |
| CC[C@@H]1CN(c2nc(=O)n(C)c3c2nc(C)n3C[C@H]2OCC[C@@H]2O)[C@@H](C)CN1[C@H](CC)c1ccc(C(F)(F)F)cc1 [Example 70, 6-((2S,5R)-5-ethyl-2-methyl-4-((R)-1-(4-(trifluoromethyl)phenyl)propyl)piperazin-1-yl)-9-(((2R,3S)-3-hydroxytetrahydrofuran-2-yl)methyl)-3,8-dimethyl-3,9-dihydro-2H-purin-2-one] | ≤ 0.01 | ≤ 0.01 |
| CC[C@@H]1CN(c2nc(=O)n(C)c3c2nc(C)n3C[C@H]2OCC[C@H]2O)[C@@H](C)CN1[C@@H](CC)c1ccc(C(F)(F)F)cc1 [Example 71, 6-((2S,5R)-5-Ethyl-2-methyl-4-((S)-1-(4-(trifluoromethyl)phenyl)propyl)piperazin-1-yl)-9-(((2R,3R)-3-hydroxytetrahydrofuran-2-yl)methyl)-3,8-dimethyl-3,9-dihydro-2H-purin-2-one] | ≤ 0.01 | ≤ 0.01 |
| CC[C@@H]1CN(c2nc(=O)n(C)c3c2nc(C)n3C[C@H]2OCC[C@H]2O)[C@@H](C)CN1[C@H](CC)c1ccc(C(F)(F)F)cc1 [Example 72, 6-((2S,5R)-5-ethyl-2-methyl-4-((R)-1-(4-(trifluoromethyl)phenyl)propyl)piperazin-1-yl)-9-(((2R,3R)-3-hydroxytetrahydrofuran-2-yl)methyl)-3,8-dimethyl-3,9-dihydro-2H-purin-2-one] | ≤ 0.01 | ≤ 0.01 |

The remaining lines, values ahead:

| IC50 [1] [µM] | IC50 [2] [µM] | Structure (SMILES) |
| --- | --- | --- |
| ≤ 0.01 | ≤ 0.01 | CC[C@@H]1CN(c2nc(=O)n(C)c3c2nc(C)n3C[C@@H]2CCCO2)[C@@H](C)CN1[C@@H](c1ccc(C(F)(F)F)cc1)C(C)C [Example 60, 6-((2S,5R)-5-ethyl-2-methyl-4-((R)-2-methyl-1-(4-(trifluoromethyl)phenyl)propyl)piperazin-1-yl)-3,8-dimethyl-9-(((S)-tetrahydrofuran-2-yl)methyl)-3,9-dihydro-2H-purin-2-one] |
| ≤ 0.01 | ≤ 0.01 | CC[C@@H]1CN(c2nc(=O)n(C)c3c2nc(C)n3C[C@@H]2CCCO2)[C@@H](C)CN1[C@@H](C)c1ccc(C(F)(F)F)cc1 [Example 61, 6-((2S,5R)-5-Ethyl-2-methyl-4-((S)-1-(4-(trifluoromethyl)phenyl)ethyl)piperazin-1-yl)-3,8-dimethyl-9-(((S)-tetrahydrofuran-2-yl)methyl)-3,9-dihydro-2H-purin-2-one] |
| ≤ 0.01 | ≤ 0.01 | CC[C@@H]1CN(c2nc(=O)n(C)c3c2nc(C)n3C[C@@H]2CCCO2)[C@@H](C)CN1[C@H](C)c1ccc(C(F)(F)F)cc1 [Example 62, 6-((2S,5R)-5-ethyl-2-methyl-4-((R)-1-(4-(trifluoromethyl)phenyl)ethyl)piperazin-1-yl)-3,8-dimethyl-9-(((S)-tetrahydrofuran-2-yl)methyl)-3,9-dihydro-2H-purin-2-one] |
| ≤ 0.01 | ≤ 0.01 | CC[C@@H]1CN(c2nc(=O)n(C)c3c2nc(C)n3C[C@H]2OCC[C@@H]2O)[C@@H](C)CN1C(c1ccc(Cl)cc1)C1CC(F)(F)C1 (stereo partly drawn) [Example 65, 6-((2S,5R)-4-((4-Chlorophenyl)(3,3-difluorocyclobutyl)methyl)-5-ethyl-2-methylpiperazin-1-yl)-9-(((2R,3S)-3-hydroxytetrahydrofuran-2-yl)methyl)-3,8-dimethyl-3,9-dihydro-2H-purin-2-one] |
